{
  "source": "patent US4973603A",
  "about": "“Platelet activating factor antagonist and methods of use therefor” (priority 1989, dated 1990)",
  "key": {"[1]": {"test_system": "5-HETE synthesis in mouse peritoneal macrophages", "assay": "Inhibition of 5-HETE Synthesis in mouse peritoneal macrophages", "type": "cell-based, mouse (CD-1, female)", "settings": "for 5-HETE (%) (percentage of total recovered radioactivity): vehicle 2.9 ± 0.16", "protocol": "It has been proposed that products of lipoxygenase action such as leukotriene […] (LTB4) and 5-hydroxyeicosatetraenoic acid (5-HETE) can act synergistically with PAF to cause neutrophil degranulation which may contribute to the development of inflammation. J. T. O'Flaherty, J. Cell Biology, 122:229-239 (1985). Formula I was tested as an inhibitor of 5-HETE production in mouse peritoneal macrophages using the following procedure.\nPeritoneal cells were collected from female CD-1 mice (20-25 g) following sacrifice by cervical dislocation. The cells from each group of mice were pooled, centrifuged and suspended in MEM. Aliquotes containing 4.5×10^6 cells in 3.0 ml MEM were placed in culture dishes and incubated for 18 hours at 37° C. By this procedure, a relatively homogenous monolayer of macrophages was obtained. Eicosanoid synthesis was brought about by the addition of ^14 C-arachidonic acid (2×10^5 dpm; 0.22 μM) followed by a calcium ionophore, A23187 (0.03 μM). After 15 minutes, the reaction was stopped by the addition of citric acid to pH4 and the products were extracted with ethyl acetate. Silica gel thin layer chromatography (hexane; ether; acetic acid; 50:50:1) was used to separate the 5-HETE which was identified by comparison with authentic material. Carbon-14 content was measured by liquid scintillation counting of the HETE containing zone. The significance of drug induced changes was calculated using the Student's test when compared with vehicle treated (ethanol, 30 μl) cells."}, "[2]": {"test_system": "platelet activating factor (PAF)", "assay": "PAF Induced Mortality", "type": "in vivo, mouse (Charles River CD-1, female)", "protocol": "The induction of mortality by the injection of low doses of PAF into mice has been described as a method for assessing the effectiveness of agents to antagonize the anaphylactic properties of PAF by J. M. Young, P. J. Maloney, S. W. Jubb and J. S. Clarke, in Prostaglandins, 30:545-551 (1985). Charles River CD-1 female mice (25-30 g) were given intraperitoneal injections of PAF (10 μg) dissolved in 100 μl of 5% ethanol-saline. […] Test drugs were orally administered in 50 μl of peanut oil one hour prior to PAF injection. Control mice were dosed with vehicle only. Mortality was assessed by counting survivors at one hour, two hours, and twenty four hours after the PAF injection."}, "gastric mucosa": {"test_system": "gastric mucosa", "protocol": "Robert and Szabo, In: Selye's Guide to Stress Research, (Vol. 2, A. Selye, Ed.) New York; Van Nostrand Reinhold Co., pp. 22-46 (1983); and Robert et al., Gastroenterology, 77:433-443 (1979). Experimental groups of 5-11 rats (Charles River CD) were fasted for 24 hours before the administration of either aspirin, Formula I or indomethacin by a rubber stomach tube (Rusch No. 8). The animals were killed 1 hour later by carbon dioxide asphyxiation. At that time, 4 ml of 10% aqueous buffered formaldehyde (formalin) was injected directly into the stomach of each animal. […] After 5 minutes of in situ fixation, the stomach and proximal duodenum were removed, opened along the greater curvature, pinned on a cork with mucosa upward, and immersed in 10% formaldehyde until further processing. Szabo, S. et al., J. Pharmacol. Meth., 13:59-66 (1985). The gastric lesions were then evaluated by direct visual inspection.\nFor comparative purposes, a semiquantitative scale of 0-3 was used to assess the extent of gastric mucosal lesions. Szabo et al., Science, 214:200-202 (1981); and Szabo et al., Gastroenterology, 85:1384-1390 (1983). According to this scale, a score of 0 indicates a normal mucosa; 1 represents the appearance of between 1 and 4 small petechiae; 2 indicates the presence of 5 or more petechiae or hemmorhagic streaks up to 4 mm in length; 3 represents the appearance of erosions longer than 5 mm or confluent hemmorrhages."}, "arachidonic acid": {"test_system": "arachidonic acid", "assay": "The Mouse Ear Edema Test (arachidonic acid-induced skin edema)", "type": "in vivo, mouse (Charles River CD-1, female)", "settings": "for % Inhibition of Edema: 1 hour before arachidonic acid (0.5 mg)", "description": "The direct application of arachidonic acid to skin, such as the mouse ear, produces an edematous response which is believed to be mediated by eicosanoids resulting from the actions of both cyclooxygenase and lipoxygenase systems. J. M. Young, D. A. Spires, C. J. Bedford, B. Wagner, S. J. Ballaron and L. M. DeYoung, J. Invest. Dermatol. 82:367-371 (1984); E. E. Opas, R. J. Bonney, and J. L. Hanes J. Invest. Dermatol. 84:253-256 (1985). PAF has been reported to cause the release of arachidonic acid, and as a result, gives rise to increased levels of eicosanoids in the exposed tissues. F. H. Chilton, J. T. Flaherty, C. E. Walsh, M. J. Thomas, R. L. Wykle, L. R. DeChatelet and B. M. Waite, J. Biol. Chem., 257:5402-5407 (1982). Thus, the mouse ear edema test can be used to discover substances which antagonize the effects of PAF.\nThe test drugs were dissolved in 10 μl ethanol and applied to the inner surface of the left ears of Charles River CD-1 female mice. Control values were obtained by applying 10 μl of ethanol to the right ear so that each mouse served as its own control. One hour later, arachidonic acid (0.5 mg/ear in 10 μl ethanol) was applied to both ears and allowed to act on the skin for one hour. The mice were then killed by cervical dislocation and the ears removed so that all tissue samples were of equivalent areas. The extent of edema in each sample was measured by weighing on an analytical balance."}, "[3]": {"settings": "20 mg/kg oral, 1 hr after PAF (10 μg i.p.)"}, "[4]": {"settings": "20 mg/kg oral, 2 hrs after PAF (10 μg i.p.)"}, "[5]": {"settings": "20 mg/kg oral, 24 hrs after PAF (10 μg i.p.)"}, "[6]": {"settings": "40 mg/kg oral, 1 hr after PAF (10 μg i.p.)"}, "[7]": {"settings": "40 mg/kg oral, 2 hrs after PAF (10 μg i.p.)"}, "[8]": {"settings": "40 mg/kg oral, 24 hrs after PAF (10 μg i.p.)"}, "[9]": {"settings": "80 mg/kg oral, 1 hr after PAF (10 μg i.p.)"}, "[10]": {"settings": "80 mg/kg oral, 2 hrs after PAF (10 μg i.p.)"}, "[11]": {"settings": "80 mg/kg oral, 24 hrs after PAF (10 μg i.p.)"}},
  "note": "Entries after “also recorded” stand apart in the source; their conditions may differ.",
  "data": [
    {"smiles": "CCCCCc1cc(O)c2c(c1)OC(C)(C)C1CC=C(C(=O)O)CC21", "note": "(stereo not shown) [Formula I, 6a,7,10,10a-tetrahydro-6,6-dimethyl-9-carboxyl-3-pentyl-6H-dibenzo[b,d]pyran-1-ol]", "values": [
      {"measurement": "5-HETE (%) (percentage of total recovered radioactivity)", "setting": "[1]; 0.32 μM", "value": "3.08 ± 0.36", "unit": "%"},
      {"measurement": "5-HETE (%) (percentage of total recovered radioactivity)", "setting": "[1]; 1.6 μM", "value": "3.03 ± 0.42", "unit": "%"},
      {"measurement": "5-HETE (%) (percentage of total recovered radioactivity)", "setting": "[1]; 3.2 μM", "value": "1.58 ± 0.41", "unit": "%"},
      {"measurement": "5-HETE (%) (percentage of total recovered radioactivity)", "setting": "[1]; 4 μM", "value": "1.68 ± 0.15", "unit": "%"},
      {"measurement": "5-HETE (%) (percentage of total recovered radioactivity)", "setting": "[1]; 8 μM", "value": "1.48 ± 0.87", "unit": "%"},
      {"measurement": "5-HETE (%) (percentage of total recovered radioactivity)", "setting": "[1]; 16 μM", "value": "3.10 ± 0.10", "unit": "%"},
      {"measurement": "inhibition at 3.2 µM", "setting": "[1]; Mus musculus, Peritoneal macrophage, 3.2 μM", "value": 46, "unit": "%"},
      {"measurement": "inhibition at 4 µM", "setting": "[1]; Mus musculus, Peritoneal macrophage, 4 μM", "value": 42, "unit": "%"},
      {"measurement": "inhibition at 8 µM", "setting": "[1]; Mus musculus, Peritoneal macrophage, 8 μM", "value": 49, "unit": "%"},
      {"measurement": "reduction of 5-HETE synthesis (in words)", "setting": "[1]; dose range of 3.2 to 8 μM", "value": "reduces 5-HETE synthesis to one half of the control level"},
      {"measurement": "Survivors (%)", "setting": "[2]; [3]", "value": 25, "unit": "%"},
      {"measurement": "Survivors/N", "setting": "[2]; [3]", "value": "5/20"},
      {"measurement": "Survivors (%)", "setting": "[2]; [4]", "value": 25, "unit": "%"},
      {"measurement": "Survivors/N", "setting": "[2]; [4]", "value": "5/20"},
      {"measurement": "Survivors (%)", "setting": "[2]; [5]", "value": 25, "unit": "%"},
      {"measurement": "Survivors/N", "setting": "[2]; [5]", "value": "5/20"},
      {"measurement": "Survivors (%)", "setting": "[2]; [6]", "value": 80, "unit": "%"},
      {"measurement": "Survivors/N", "setting": "[2]; [6]", "value": "12/15"},
      {"measurement": "Survivors (%)", "setting": "[2]; [7]", "value": 80, "unit": "%"},
      {"measurement": "Survivors/N", "setting": "[2]; [7]", "value": "12/15"},
      {"measurement": "Survivors (%)", "setting": "[2]; [8]", "value": 80, "unit": "%"},
      {"measurement": "Survivors/N", "setting": "[2]; [8]", "value": "12/15"},
      {"measurement": "survival rate", "setting": "[2]; 40 mg/kg oral, all time points (1, 2, 24 hours)", "value": 80, "unit": "%"},
      {"measurement": "Survivors (%)", "setting": "[2]; [9]", "value": 70, "unit": "%"},
      {"measurement": "Survivors/N", "setting": "[2]; [9]", "value": "7/10"},
      {"measurement": "Survivors (%)", "setting": "[2]; [10]", "value": 70, "unit": "%"},
      {"measurement": "Survivors/N", "setting": "[2]; [10]", "value": "7/10"},
      {"measurement": "Survivors (%)", "setting": "[2]; [11]", "value": 70, "unit": "%"},
      {"measurement": "Survivors/N", "setting": "[2]; [11]", "value": "7/10"},
      {"measurement": "antagonism of anaphylactic effects of PAF (in words)", "setting": "[2]; oral, mouse", "value": "potent antagonist to the anaphylactic effects of PAF"},
      {"measurement": "Incidence (rats with lesions/total tested)", "setting": "gastric mucosa; 80 mg/kg by stomach tube, 1 hour", "value": "0/10"},
      {"measurement": "Mean Score", "setting": "gastric mucosa; 80 mg/kg by stomach tube, 1 hour, scale 0-3 (0 = normal mucosa)", "value": 0.0},
      {"measurement": "ulcer / gastric lesion formation (in words)", "setting": "gastric mucosa; directly into the stomach, Formula I at twice its therapeutic dose in the mouse (40 mg/kg), 40 mg/kg", "value": "did not induce ulcer formation; also recorded: does not induce the formation of gastric lesions"},
      {"measurement": "% Inhibition of Edema", "setting": "arachidonic acid; 0.13 mg/ear topical", "value": 0.6, "unit": "%"},
      {"measurement": "% Inhibition of Edema", "setting": "arachidonic acid; 0.25 mg/ear topical", "value": 18.3, "unit": "%"},
      {"measurement": "% Inhibition of Edema", "setting": "arachidonic acid; 0.50 mg/ear topical", "value": 19.1, "unit": "%"},
      {"measurement": "% Inhibition of Edema", "setting": "arachidonic acid; 1.0 mg/ear topical", "value": 19.3, "unit": "%"},
      {"measurement": "reduction of arachidonic acid-induced skin edema (in words)", "setting": "arachidonic acid; topical, mouse ear", "value": "effective in reducing arachidonic acid-induced skin edema"},
      {"measurement": "relative activity versus naproxen", "setting": "arachidonic acid; topical, mouse ear", "value": "more active than the widely used antiinflammatory drug naproxen"},
      {"measurement": "relative potency versus indomethacin and phenidone", "setting": "arachidonic acid; topical, mouse ear", "value": "approximately one half the potency of agents such as indomethacin and phenidone"}
    ]}
  ]
}
